Test systems include 786-0; CCRF-CEM; EKVX; HCT-15; HOP-62; Hs-578T; MDA-N; Malme-3M; NCI-H23; NCI-H460; OVCAR-3; RXF 393; SK-MEL-5; SN12C; SNB-19; SW-620; T47D; TK-10; UO-31.
Assay in all cases: growth of human tumour cells (NCI), 48 h

This note sets out measurements from ChEMBL document CHEMBL1201862, “PubChem BioAssay data set” (2004).

SMILES strings stand for the structures.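 Values below derive from 48-hour exposures of cells grown in 96-well plates, with endpoints linearly interpolated between the two concentrations bracketing the appropriate inhibition level. GI50 is the concentration that inhibits growth by half.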 Activity calls are given as the source filed them. No stated cut-off is given here; in the data, active = GI50 up to about 1.1 µM and inactive = higher.

`Cc1cc(C(C)(C)C)cc(CNC2CCCCC2)c1O`: the GI50 in the assay on 786-0 was 16.2 µM (inactive); in the assay on CCRF-CEM, 17.9 µM (inactive); in the assay on EKVX, 15.7 µM (inactive); in the assay with HCT-15 it was 16.6 µM; in the assay with HOP-62, 20.9 µM (inactive); in the assay with Hs-578T it was 20.2 µM (inactive). Besides, the GI50 in the assay on MDA-N was 16.3 µM (inactive); in the assay with Malme-3M, 14.3 µM (inactive); with NCI-H23, 15.4 µM (inactive); in the assay on NCI-H460, 14.8 µM (inactive); in the assay on OVCAR-3, 15.6 µM (inactive); in the assay on RXF 393, < 0.01 µM (active). The GI50 in the assay with SK-MEL-5 was 17 µM (inactive); with SN12C it was 15.8 µM (inactive); in the assay with SNB-19 it was 16.6 µM (inactive); in the assay on SW-620, 19.9 µM (inactive); in the assay with T47D, 14.8 µM (inactive); in the assay on TK-10, 16.1 µM (inactive). Also, the GI50 with UO-31 is 14.9 µM (inactive).
For the compound `CCN(CC(=O)O)CC(=O)O`, the GI50 with 786-0 was > 100 µM (inactive); with CCRF-CEM, > 100 µM (inactive); in the assay on EKVX it was > 100 µM (inactive); in the assay with HCT-15, over 100 µM; in the assay with HOP-62, > 100 µM (inactive); in the assay on Hs-578T, > 100 µM (inactive). Moreover, the GI50 in the assay on MDA-N, with Malme-3M, in the assay with NCI-H23, in the assay with NCI-H460, with OVCAR-3 and in the assay on RXF 393 was > 100 µM (inactive) throughout. Moreover, the GI50 in the assay on SK-MEL-5, with SN12C, with SNB-19, in the assay on SW-620, in the assay on T47D and with TK-10 was > 100 µM (inactive) in each case. In addition, in the assay on UO-31, the GI50 was > 100 µM (inactive).
In the case of `CCOC(=O)C1OC(C2(C)OC3(OC4(C=CC3O)OC(C(C)C(=O)C(C)C(O)C(C)CC(C)c3c(Cl)cc(C)c(O)c3C(=O)O)C(C)CC4C)C(C)C2OC)CC1O` (centres undefined), the GI50 was 0.454 µM (active) with 786-0; 0.0828 µM (active) with CCRF-CEM; 1.09 µM (active) in the assay with EKVX; 0.453 µM with HCT-15; 0.0535 µM (active) in the assay with HOP-62; 0.982 µM (active) in the assay with Hs-578T. Besides, the GI50 in the assay on MDA-N was 0.55 µM (active); in the assay with Malme-3M, 0.294 µM (active); with NCI-H23, 0.507 µM (active); in the assay with NCI-H460 it was 0.0826 µM (active); with OVCAR-3 it was 0.45 µM (active); in the assay on RXF 393, 0.647 µM (active). Further, the GI50 in the assay with SK-MEL-5 was 0.257 µM (active); in the assay with SN12C it was 0.207 µM (active); in the assay with SNB-19, 0.249 µM (active); in the assay with SW-620, 0.251 µM (active); in the assay with T47D it was 0.955 µM (active); with TK-10, 2.34 µM (inactive). In addition, in the assay with UO-31, the GI50 was 1.18 µM (inactive).
Regarding `CCOc1nc2c(N3CCCC3)nc(N3CCNCC3)nc2nc1NCc1ccccc1`, the GI50 in the assay with 786-0 was 1.39 µM (inactive); with CCRF-CEM, 1.26 µM (inactive); with EKVX, 2.1 µM (inactive); in the assay with HCT-15, 1.63 µM; in the assay on HOP-62, 1.05 µM (active); in the assay with Hs-578T, 1.72 µM (inactive). In addition, the GI50 is 1.11 µM (active) with MDA-N; 1.89 µM (inactive) in the assay on Malme-3M; 1.51 µM (inactive) with NCI-H23; 1.41 µM (inactive) in the assay on NCI-H460; 0.887 µM (active) in the assay on OVCAR-3; 1.03 µM (active) in the assay with RXF 393. In addition, the GI50 was 1.41 µM (inactive) with SK-MEL-5; 1.5 µM (inactive) in the assay with SN12C; 1.51 µM (inactive) in the assay on SNB-19; 1.73 µM (inactive) in the assay on SW-620; 1.46 µM (inactive) with T47D; 1.9 µM (inactive) in the assay on TK-10. In the assay on UO-31, the GI50 was 1.32 µM (inactive).
In the case of `FC(F)(F)c1ccc2c(-c3cc[nH]c3)ccnc2c1`, the GI50 in the assay with 786-0 was 17.7 µM (inactive); with CCRF-CEM, 32.6 µM (inactive); in the assay on EKVX, 33 µM (inactive); with HCT-15 it was over 100 µM; in the assay with HOP-62, 35.5 µM (inactive); in the assay on Hs-578T it was 23.9 µM (inactive). Further, the GI50 in the assay on MDA-N is 32.3 µM (inactive); with Malme-3M, 24.5 µM (inactive); in the assay on NCI-H23, 28 µM (inactive); in the assay with NCI-H460 it was 33.7 µM (inactive); in the assay with OVCAR-3 it was 27.4 µM (inactive); in the assay with RXF 393, 22.5 µM (inactive). Moreover, the GI50 was 20.7 µM (inactive) in the assay with SK-MEL-5; 41 µM (inactive) in the assay on SN12C; 17.5 µM (inactive) with SNB-19; 36.1 µM (inactive) in the assay on SW-620; > 100 µM (inactive) in the assay with T47D; 28.6 µM (inactive) in the assay on TK-10. For the same compound, in the assay with UO-31, the GI50 was 20.9 µM (inactive).
Take `Cc1ccc2c(=O)c(-c3nnsn3)c[nH]c2n1`: the GI50 with 786-0 is > 100 µM (inactive); in the assay on CCRF-CEM, > 100 µM (inactive); with EKVX it was > 100 µM (inactive); in the assay on HCT-15, over 100 µM; in the assay on HOP-62 it was > 100 µM (inactive); in the assay with Hs-578T it was > 100 µM (inactive). Besides, the GI50 in the assay with MDA-N, in the assay with Malme-3M, in the assay on NCI-H23, with NCI-H460, in the assay on OVCAR-3 and in the assay on RXF 393 was > 100 µM (inactive) in each case. Besides, the GI50 with SK-MEL-5, with SN12C, in the assay on SNB-19, with SW-620, with T47D and in the assay on TK-10 was > 100 µM (inactive) each time. Also, the GI50 in the assay on UO-31 was > 100 µM (inactive).
With `Cc1c[n+]([O-])c2ccccc2[n+]1[O-]`, the GI50 with 786-0 was > 100 µM (inactive); with CCRF-CEM it was > 100 µM (inactive); in the assay with EKVX, > 100 µM (inactive); with HCT-15, over 100 µM; in the assay on HOP-62 it was > 100 µM (inactive); in the assay with Hs-578T, > 100 µM (inactive). Moreover, the GI50 in the assay on MDA-N, with Malme-3M, with NCI-H23, in the assay on NCI-H460, in the assay with OVCAR-3 and in the assay on RXF 393 was > 100 µM (inactive) in each case. Moreover, the GI50 in the assay on SK-MEL-5, in the assay on SN12C, with SNB-19, in the assay with SW-620, in the assay with T47D and with TK-10 was > 100 µM (inactive) each time. The GI50 in the assay with UO-31 is > 100 µM (inactive).
With `O=C1C2=C(CC3=C(C2)CS(=O)(=O)C3)C(=O)C2=C1CC1=C(C2)CS(=O)(=O)C1`, the GI50 with 786-0 is 25.9 µM (inactive); with CCRF-CEM, 12.8 µM (inactive); with EKVX, 33.2 µM (inactive); with HCT-15 it was 34.1 µM; with HOP-62 it was 20.5 µM (inactive); in the assay on Hs-578T, > 32.4 µM (inactive). Also, the GI50 in the assay on MDA-N is 10.3 µM (inactive); with Malme-3M, 5.42 µM (inactive); in the assay on NCI-H23, 23.9 µM (inactive); in the assay on NCI-H460, > 31.5 µM (inactive); with OVCAR-3, 3.35 µM (inactive); in the assay on RXF 393, 27.3 µM (inactive). Moreover, the GI50 with SK-MEL-5 was 16.3 µM (inactive); with SN12C, 15.3 µM (inactive); with SNB-19, 17.7 µM (inactive); with SW-620 it was 18 µM (inactive); in the assay with T47D, 2.34 µM (inactive); in the assay on TK-10 it was 48.9 µM (inactive). The GI50 with UO-31 was 38.1 µM (inactive).
Consider `O=[N+]([O-])C(=C(Nc1ccccc1)Nc1ccccc1)/C(Cl)=C(\Cl)[N+](=O)[O-]`, for which the GI50 was 3.15 µM (inactive) in the assay on 786-0; 2.86 µM (inactive) with CCRF-CEM; 5.62 µM (inactive) in the assay on EKVX; 2.7 µM in the assay on HCT-15; 10.3 µM (inactive) in the assay on HOP-62; 2.74 µM (inactive) in the assay on Hs-578T. Further, the GI50 in the assay with MDA-N was 2.77 µM (inactive); in the assay on Malme-3M it was 3.54 µM (inactive); in the assay with NCI-H23 it was 3.04 µM (inactive); in the assay with NCI-H460, 14.7 µM (inactive); in the assay on OVCAR-3, 2.82 µM (inactive); with RXF 393, 1.89 µM (inactive). Also, the GI50 is 2.02 µM (inactive) in the assay on SK-MEL-5; 2.48 µM (inactive) in the assay on SN12C; 12.9 µM (inactive) in the assay with SNB-19; 2.19 µM (inactive) in the assay on SW-620; 2.02 µM (inactive) in the assay on T47D; 5.16 µM (inactive) in the assay with TK-10. Further, the GI50 with UO-31 was 3.07 µM (inactive).
As for `CN(C)CCN1C(=O)CC[C@@]2(C)C1=CC[C@@H]1[C@@H]2CC[C@@]2(C)[C@H]1CC[C@]2(C)O`, the GI50 in the assay with 786-0 was > 100 µM (inactive); in the assay on CCRF-CEM, > 100 µM (inactive); with EKVX it was > 100 µM (inactive); in the assay on HCT-15 it was over 100 µM; with HOP-62, > 100 µM (inactive); with Hs-578T, > 100 µM (inactive). Besides, the GI50 in the assay on MDA-N, in the assay with Malme-3M, with NCI-H23, in the assay on NCI-H460, with OVCAR-3 and in the assay on RXF 393 was > 100 µM (inactive) each time. For the same compound, the GI50 with SK-MEL-5, with SN12C, with SNB-19, in the assay on SW-620, in the assay on T47D and with TK-10 was > 100 µM (inactive) throughout. In addition, the GI50 in the assay on UO-31 was > 100 µM (inactive).
Consider `COc1ccc(/C=C2\CN(C)Cc3c2nc(O)c(C#N)c3-c2ccc(OC)cc2)cc1`, for which the GI50 with 786-0 was 18.2 µM (inactive); with CCRF-CEM, 40.5 µM (inactive); in the assay with EKVX, > 100 µM (inactive); in the assay on HCT-15, 64.9 µM; with HOP-62, 51.2 µM (inactive); in the assay on Hs-578T, 35.1 µM (inactive). Besides, the GI50 in the assay with MDA-N is 47.2 µM (inactive); in the assay on Malme-3M, 12.5 µM (inactive); in the assay with NCI-H23 it was > 100 µM (inactive); in the assay on NCI-H460, 29.6 µM (inactive); with OVCAR-3 it was 54.1 µM (inactive); in the assay on RXF 393 it was 24.3 µM (inactive). Also, the GI50 with SK-MEL-5 is > 100 µM (inactive); in the assay with SN12C, 42.5 µM (inactive); in the assay on SNB-19, 34.5 µM (inactive); with SW-620, > 100 µM (inactive); in the assay with T47D, 80.4 µM (inactive); in the assay on TK-10, 43.4 µM (inactive). Besides, the GI50 in the assay on UO-31 is > 100 µM (inactive).
